Measurements as given in ChEMBL document CHEMBL1125506, “Fluoronaphthyridines as antibacterial agents. 6. Synthesis and structure-activity relationships of new chiral 7-(1-, 3-, 4-, and 6-methyl-2,5-diazabicyclo[2.2.1]heptan-2-yl)naphthyridine analogues of 7-[(1R,4R)-2,5- diazabicyclo[2.2.1]heptan-2-yl]-1-(1,1-dimethylethyl)-6-fluoro-1,4-dihy …” (J Med Chem, 1992).
Converted amounts (≈) assume the structure as drawn.

Key:
[1] = system: Staphylococcus aureus; test: In vitro antibacterial activity against Staphylococcus aureus A9537; assay type: functional
[2] = system: Enterococcus faecalis; test: In vitro antibacterial activity against Enterococcus faecalis A9809; assay type: functional
[3] = system: Klebsiella pneumoniae; test: In vitro antibacterial activity against Klebsiella pneumoniae A9664; assay type: functional
[4] = system: Serratia marcescens; test: In vitro antibacterial activity against Serratia marcescens A20019; assay type: functional
[5] = system: Morganella morganii; test: In vitro antibacterial activity against Morganella morganii A15153; assay type: functional
[6] = system: Proteus mirabilis; test: In vitro antibacterial activity against Proteus mirabilis A9900; assay type: functional
[7] = system: Escherichia coli; test: In vitro antibacterial activity against Escherichia coli A15119; assay type: functional
[8] = system: Pseudomonas aeruginosa; test: In vitro antibacterial activity against Pseudomonas aeruginosa A9843; assay type: functional
[9] = system: Enterobacter cloacae; test: In vitro antibacterial activity against Enterobacter cloacae A9656; assay type: functional
[10] = system: Bacteroides fragilis; test: In vitro antibacterial activity against Bacteroides fragilis A-22,862; assay type: functional
[11] = system: Streptococcus pneumoniae; test: In vitro antibacterial activity against Streptococcus pneumoniae A9585.; assay type: functional
[12] = Partition coefficient (logD); assay type: physicochemical; details: octanol/water
[13] = Solubility (water, 22C, pH 7.2); assay type: physicochemical; details: read-out: S
[14] = system: Mus musculus; test: In vivo efficacy on systemic infections caused by Staphylococcus aureus A15090 in mice after peroral administration; assay type: functional; details: po, read-out: PD50
[15] = system: Mus musculus; test: Area under curve measured as conc vs time after intravenous administration to mice.; assay type: ADME, organism-based; set-up: unit not given here; details: in vivo
[16] = system: Mus musculus; test: In vivo efficacy on systemic infections caused by Streptococcus pneumoniae A9585 in mice after intramuscular administration; assay type: functional; details: im, read-out: PD50
[17] = Peak concentration in blood after intravenous administration to mice; assay type: ADME, organism-based; set-up: route intravenous; details: mouse
[18] = system: Mus musculus; test: In vivo efficacy on systemic infections caused by Pseudomonas aeruginosa A9843 in mice after peroral administration; assay type: functional; details: po, read-out: PD50
[19] = system: Mus musculus; test: In vivo efficacy on systemic infections caused by Staphylococcus aureus A15090 in mice after intramuscular administration; assay type: functional; details: im, read-out: PD50
[20] = percent urinary recovery in 24 hr after intravenous administration to mice; assay type: ADME, organism-based; details: mouse, urine, read-out: UR
[21] = Peak concentration in blood after peroral administration to mice; assay type: ADME, organism-based; set-up: route oral; details: mouse, po
[22] = system: Mus musculus; test: Area under curve measured as conc vs time after peroral administration to mice.; assay type: ADME, organism-based; set-up: unit not given here; details: in vivo, po
[23] = system: Mus musculus; test: In vivo efficacy on systemic infections caused by Streptococcus pneumoniae A9585 in mice after peroral administration; assay type: functional; details: po, read-out: PD50
[24] = Percent urinary recovery in 24 hr after peroral administration to mice; assay type: ADME, organism-based; details: mouse, urine, po; read-out: UR
[25] = system: Mus musculus; test: In vivo efficacy on systemic infections caused by Escherichia coli A15119 in mice after intramuscular administration; assay type: functional; details: im, read-out: PD50
[26] = Plasma half-life after intravenous administration to mice; assay type: ADME, organism-based; details: mouse
[27] = Plasma half-life after peroral administration to mice; assay type: ADME, organism-based; details: mouse, po
[28] = system: Mus musculus; test: In vivo efficacy on systemic infections caused by Pseudomonas aeruginosa A9843 in mice after intramuscular administration; assay type: functional; details: im, read-out: PD50
[29] = Acute toxicity after intravenous administration to mice; assay type: organism-based; details: mouse, in vivo
[30] = Acute toxicity after peroral administration to mice; assay type: organism-based; details: mouse, in vivo, po
[31] = system: Mus musculus; test: In vivo efficacy on systemic infections caused by Escherichia coli A15119 in mice after peroral administration; assay type: functional; details: po, read-out: PD50

| SMILES | MIC [1] [µg/mL] | MIC [2] [µg/mL] | MIC [3] [µg/mL] | MIC [4] [µg/mL] | MIC [5] [µg/mL] | MIC [6] [µg/mL] | MIC [7] [µg/mL] | MIC [8] [µg/mL] | MIC [9] [µg/mL] | MIC [10] [µg/mL] | MIC [11] [µg/mL] | logD [12] | solubility [13] [µg/mL] | ED50 [14] [mg/kg] | Cmax [17] [ng/mL] | ED50 [18] [mg/kg] | dose excreted at 24 h [20] [%] | Cmax [21] [ng/mL] | dose excreted at 24 h [24] [%] | half-life [26] [h] | also measured |
| --- | --- | --- | --- | --- | --- | --- | --- | --- | --- | --- | --- | --- | --- | --- | --- | --- | --- | --- | --- | --- | --- |
| Cc1c(F)c(N2C[C@H]3C[C@@H]2[C@@H](C)N3)nc2c1c(=O)c(C(=O)O)cn2C1CC1.Cl | 0.016 | 0.25 | 0.06 | 0.5 | 0.25 | 0.25 | 0.016 | 1 | 0.06 | 8 | 0.13 | 0.71 | 150 |  |  |  |  |  |  |  |  |
| Cc1c(F)c(N2C[C@H]3C[C@@H]2[C@H](C)N3)nc2c1c(=O)c(C(=O)O)cn2C1CC1.Cl | 0.016 | 0.13 | 0.016 | 0.13 | 0.06 | 0.06 | 0.004 | 0.13 | 0.016 | 2 | 0.06 | 0.71 | 6 | 1.8 | 12000 | 0.34 | 16 | 6000 | 18 | 4.8 | AUC [15]: 59; ED50 [16]: 18.9 mg/kg; ED50 [19]: 0.34 mg/kg; AUC [22]: 41; ED50 [23]: 18.9 mg/kg; ED50 [25]: 0.1 mg/kg; half-life [27]: 4.2 h; ED50 [28]: 0.78 mg/kg |
| Cc1c(F)c(N2[C@H]3CN[C@H](C3)[C@H]2C)nc2c1c(=O)c(C(=O)O)cn2C1CC1.Cl | 0.03 | 0.025 | 0.06 | 0.5 | 0.25 | 0.5 | 0.016 | 2 | 0.06 | 8 | 0.25 | 1 | 220 |  |  |  |  |  |  |  |  |
| C[C@H]1N[C@@H]2C[C@H]1N(c1nc3c(cc1F)c(=O)c(C(=O)O)cn3C(C)(C)C)C2.Cl | 0.06 | 1 | 0.5 | 0.25 | 1 | 0.5 | 0.03 | 2 | 0.06 | 4 | 0.5 | -0.12 | 6340 | 16.5 | 23000 | 9.5 | 18 | 11000 | 17 | 0.75 | AUC [15]: 18; AUC [22]: 8; half-life [27]: 0.733 h; ED50 [28]: 12.5 mg/kg |
| C[C@@H]1N[C@@H]2C[C@H]1N(c1nc3c(cc1F)c(=O)c(C(=O)O)cn3C(C)(C)C)C2.Cl | 0.03 | 0.25 | 0.03 | 0.13 | 0.13 | 0.13 | 0.008 | 0.5 | 0.03 | 2 | 0.25 | 0.1 | 25 | 1.6 | 22000 | 2.7 | 16 | 9000 | 18 | 1.22 | AUC [15]: 22; ED50 [16]: 14.4 mg/kg; LD50 [29]: 263 mg/kg; ED50 [19]: 0.9 mg/kg; LD50 [30]: > 2500 mg/kg; AUC [22]: 41; ED50 [23]: 25 mg/kg; half-life [27]: 2.63 h; ED50 [28]: 1.6 mg/kg |
| Cc1c(F)c(N2C[C@H]3C[C@@H]2CN3)nc2c1c(=O)c(C(=O)O)cn2C1CC1 | 0.016 (≈ 0.0446 µM) | 0.06 (≈ 0.167 µM) | 0.008 (≈ 0.0223 µM) | 0.006 (≈ 0.0167 µM) | 0.03 (≈ 0.0837 µM) | 0.03 (≈ 0.0837 µM) | 0.02 (≈ 0.0558 µM) | 0.006 (≈ 0.0167 µM) | 0.002 (≈ 0.00558 µM) | 1 (≈ 2.79 µM) | 0.06 (≈ 0.167 µM) | 0.48 | 20 (≈ 55.8 µM) | 5.4 | 19000 | 2.7 | 41 | 9000 | 34 | 1.5 | AUC [15]: 40; ED50 [16]: > 25 mg/kg; ED50 [31]: 0.9 mg/kg; LD50 [29]: 125 mg/kg; ED50 [19]: 2.4 mg/kg; LD50 [30]: 1750 mg/kg; AUC [22]: 26; ED50 [23]: 43.5 mg/kg; ED50 [25]: 0.2 mg/kg; half-life [27]: 1.28 h |
| CC(C)(C)n1cc(C(=O)O)c(=O)c2cc(F)c(N3C[C@H]4C[C@@H]3CN4)nc21 | 0.03 (≈ 0.0832 µM) | 0.13 (≈ 0.361 µM) | 0.016 (≈ 0.0444 µM) | 0.06 (≈ 0.166 µM) | 0.03 (≈ 0.0832 µM) | 0.06 (≈ 0.166 µM) | 0.008 (≈ 0.0222 µM) | 0.25 (≈ 0.694 µM) | 0.016 (≈ 0.0444 µM) | 0.5 (≈ 1.39 µM) | 0.13 (≈ 0.361 µM) | -0.41 | 80 (≈ 222 µM) | 1.6 | 20000 | 4.7 | 30 | 10000 | 34 | 1.22 | ED50 [16]: 18.9 mg/kg; LD50 [29]: 303 mg/kg; ED50 [19]: 0.9 mg/kg; LD50 [30]: 5000 mg/kg; ED50 [23]: 28 mg/kg; ED50 [25]: 0.5 mg/kg; half-life [27]: 1.6 h; ED50 [28]: 1.4 mg/kg |
